Measurements as given in patent US7732484B2, “Use of selective adenosine A1 receptor allosteric enhancers to manipulate angiogenesis” (University of Virginia Patent Foundation, priority 2000, dated 2010).

Legend:
[1] = system: chicken chorioallantoic membrane (CAM); assay: Windowed CAM assay, Elvax pellet, vascular density index; format: in vivo; settings: Elvax pellet with 3 mg adenosine, in place for seven days, 12-15 eggs per group, FIG. 5
Method: Fertile White Leghorn chicken eggs were obtained from Truslow Farms (Chesterfield, Mo.). Eggs were incubated at 37° for 7 days, then a 1.5 cm window was cut into each egg over the CAM. Pellets were applied to the CAMs and the windows closed with cellophane tape. Eggs were incubated until day 14 when the CAMs were fixed. […] The pellets were placed on the CAM where there were a few vessels present and were left in place for seven days. The CAMs then were fixed in 10% buffered formalin and vessels were counted under 20× magnification using a Nikon stereomicroscope. The quantitation of vascular number is presented as vascular density index VDI that was an adaptation of a method described by Harris-Hooker (Harris-Hooker et al., Neovascular Responses Induced by Cultured Aortic Endothelial Cells, J. Cell. Phys., 114, 302-310, 1983). A plastic cover slip inscribed with 4, 5, 6, and 8 mm diameter concentric circles was centered over the adenosine pellet on the formalin-fixed CAM. The vascular density was judged by counting the numbers of the vessels which intersected the circles. This technique allowed counting of vessels down to 10-12 u in diameter. The positioning of the pellets on the CAM was randomized. […] Adenosine was delivered by other means as well.

[2] = system: chicken chorioallantoic membrane (CAM); assay: CAM assay, drug applied daily on filter paper disc, vessels counted; format: in vivo; settings: for angiogenic response in the CAM (vessel density at edge of disk): 100 μl daily for 7 days on filter paper disk
Method: Adenosine receptor subtype selective agonists stimulate angiogenesis to varying degrees in the CAM. […] In these studies, sterile filter paper disks were used to apply drug or vehicle to the CAM of eggs windowed after 7 days of incubation. The circular disk was 7 mm diameter. The agonist and antagonist drugs were delivered daily for 7 days in a volume of 100 μl placed onto the disks. On day 14 the CAMs were formalin fixed. The vessel density was determined by counting the vessels that intersected with the edge of the disks. Each bar represents data from between 13 and 19 eggs, with the exception of the bar for xanthine amine congener (XAC) which represents only four eggs. […] It is possible that some adenosine receptors may stimulate angiogenesis, while others, particularly the A2A receptor, may inhibit it. […] The 100 nM doses used should have allowed some preservation of subtype selectivity for the ligands.
Fertile White Leghorn chicken eggs are obtained from Truslow Labs (Maryland) and incubated until day 7 post-fertilization at 37° C. The eggs were automatically rotated by the incubator. On day 7 the eggs were candled to check for viability. The eggshell surface was cleaned with betadine and 70% isopropanol. A window 1.5×1.5 cm was cut into each egg over the CAM. The window was covered with clear cellophane tape and the eggs incubated at 37° C. overnight. The following day a sterile filter paper disc was applied to the CAM for the daily delivery of drugs or vehicle in a volume of 100 μl. CAMs were fixed on day 14 and vessels counted using the aforementioned method of Harris-Hooker et al.
CPA at 100 nM with or without 1 μM WRC-0571 was applied to filter paper discs on developing CAMs as described above.
Here, PD enhances the effects of endogenous adenosine on the chicken A1 receptor in the CAM. PD at a concentration of 100 μM, or vehicle, was delivered to the CAM on a filter paper disc using a protocol identical to that used for adenosine agonists. […] A small effect such as this in the absence of applied ligand or ischemia/hypoxia (which would increase the endogenous adenosine levels) is expected. Because it is a rapidly growing tissue, the CAM probably has higher levels of adenosine than more quiescent tissues, resulting in a measurable effect.

[3] = system: chicken chorioallantoic membrane (CAM); assay: as above; format: in vivo; settings: 20 nM CPA alone, FIG. 10
[4] = biological target: T1, human A3 over the A1 receptor (Homo sapiens, UniProt P0DMS8); settings: cited from earlier work
T1 sequence (P0DMS8 1-318): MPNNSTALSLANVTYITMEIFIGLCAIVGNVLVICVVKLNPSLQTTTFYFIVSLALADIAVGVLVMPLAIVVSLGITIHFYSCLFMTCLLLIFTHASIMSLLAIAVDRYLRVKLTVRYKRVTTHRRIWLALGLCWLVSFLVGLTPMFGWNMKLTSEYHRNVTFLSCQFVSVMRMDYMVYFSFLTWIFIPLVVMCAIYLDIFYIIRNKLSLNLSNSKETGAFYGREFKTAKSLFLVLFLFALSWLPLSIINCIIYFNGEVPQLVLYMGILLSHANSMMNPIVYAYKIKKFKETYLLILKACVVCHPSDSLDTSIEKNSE

[5] = system: rat mesentery; assay: Rat mesentery angiogenesis, intraperitoneal Alzet osmotic pump infusion; format: in vivo; settings: chronic infusion by Alzet pump into the peritoneal cavity, one week, FIG. 11
Method: Drug application into rat mesentery using infusion pumps. Alzet osmotic pumps were filled with drug or vehicle to a volume of 200 μl . The abdominal cavities of anesthetized 150 g Sprague-Dawley rats were incised and pumps implanted into the intraperitoneal cavity. The pumps delivered the drug at 1.0 μl/hr. After one week mesenteric samples were taken between vascular arcades along the length of the small bowel. Specimens were fixed and stained using a BS:lectin stain.
The control mesentery is shown on the left, PD 81,723—treated on the right. The chronic infusion was an advantage because the model is not an ischemic one, so steady long term administration of the PD 81,723 may help to augment the effects of lower concentrations of endogenous adenosine.

Question: Which “angiogenesis in the CAM model (vascular density index)” value [1] does the source give for Nc1ncnc2c1ncn2[C@@H]1O[C@H](CO)[C@@H](O)[C@H]1O [Adenosine, adenosine] here?
Answer: The value was “stimulated angiogenesis”.

Question: With CCNC(=O)[C@H]1O[C@@H](n2cnc3c(N)nc(NCCc4ccc(CCC(=O)O)cc4)nc32)[C@H](O)[C@@H]1O [CGS21680] as the compound, how does the “angiogenic response in the CAM (vessel density at edge of disk)” value (“angiogenic response in the CAM” below) ([2]; 100 nM doses, FIG. 6) read?
Answer: The value was “No angiogenic response”.

Question: With OC[C@H]1O[C@@H](n2cnc3c(NC4CCCC4)ncnc32)[C@H](O)[C@@H]1O [CPA, Cyclopentyladenosine] as the compound, how does the “angiogenic response in the CAM” value ([2]; 100 nM doses, FIG. 6) read?
Answer: The value was “positive angiogenic response”.

Question: What about the “stimulation of angiogenesis in the CAM” value [3] of the same compound?
Answer: The value was “did not stimulate angiogenesis”.

Question: With CCOC(=O)C1=C(C)NC(c2ccccc2)=C(C(=O)OCc2ccccc2)C1C#Cc1ccccc1 (centres unmarked) [MRS 1191] as the compound, how does the “selectivity for the human A3 over the A1 receptor” value [4] read?
Answer: Its value is greater than 1300 fold.

Question: Which “angiogenic response in the CAM” value ([2]; 100 nM doses, FIG. 6) does the source give for CCNC(=O)[C@H]1O[C@@H](n2cnc3c(N)ncnc32)[C@H](O)[C@@H]1O [NECA] here?
Answer: The value was “positive angiogenic response”.

Question: With Cc1sc(N)c(C(=O)c2cccc(C(F)(F)F)c2)c1C [PD 81,723] as the compound, how does the “stimulation of angiogenesis in the CAM” value ([2]; 100 μM on filter paper disc versus vehicle, FIG. 8) read?
Answer: The value was 10%.

Question: What about the “stimulation of angiogenesis in rat mesentery” value [5] of the same compound?
Answer: The value was “Stimulation of angiogenesis”.

Question: Which results are given for CC(C)N(C)c1nc2c(N[C@@H]3CC4CC3CC4O)ncnc2n1C (some centres unmarked) [WRC-0571]?
Answer: block of the angiogenic effect of CPA in the CAM ([2]; 1 μM WRC-0571 with 100 nM CPA, FIG. 7): completely blocked; block of the effects of endogenous adenosine on angiogenesis in the CAM ([2]; FIG. 8): blocked the effects of endogenous adenosine; block of C17-stimulated angiogenesis in the CAM ([2]; FIG. 9): blocked; block of the effects of PD 81,723 in the CAM ([2]; with PD at 100 μM, FIG. 8): completely blocked

Question: With CCCn1c(=O)c2[nH]c(-c3ccc(OCC(=O)NCCN)cc3)nc2n(CCC)c1=O [XAC, xanthine amine congener] as the compound, how does the “inhibition of baseline angiogenesis in the CAM” value ([2]; 100 nM doses, daily for 7 days on filter paper disk, four eggs, FIG. 6) read?
Answer: Its value is “did not inhibit baseline angiogenesis”.

Question: Which “angiogenic response in the CAM” value ([2]; 100 nM doses, FIG. 6) does the source give for CNC(=O)[C@H]1O[C@@H](n2cnc3c(NCc4cccc(I)c4)ncnc32)[C@H](O)[C@@H]1O [m-MECA, N^6-iodobenzyl-5′-N-methyl-carboxamidoadenosine] here?
Answer: The value was “positive angiogenic response”.
